Laboratory results from US20240384268A1, “Oligonucleotides” (Hudson Institute of Medical Research, priority 2021, published 2024).

Target: T1, human TLR9 (Homo sapiens, UniProt Q9NR96)
T1 construct: HA; host or cells: 293XL-hTLR9-HA (HEK293)
T1 sequence (Q9NR96 26-1032): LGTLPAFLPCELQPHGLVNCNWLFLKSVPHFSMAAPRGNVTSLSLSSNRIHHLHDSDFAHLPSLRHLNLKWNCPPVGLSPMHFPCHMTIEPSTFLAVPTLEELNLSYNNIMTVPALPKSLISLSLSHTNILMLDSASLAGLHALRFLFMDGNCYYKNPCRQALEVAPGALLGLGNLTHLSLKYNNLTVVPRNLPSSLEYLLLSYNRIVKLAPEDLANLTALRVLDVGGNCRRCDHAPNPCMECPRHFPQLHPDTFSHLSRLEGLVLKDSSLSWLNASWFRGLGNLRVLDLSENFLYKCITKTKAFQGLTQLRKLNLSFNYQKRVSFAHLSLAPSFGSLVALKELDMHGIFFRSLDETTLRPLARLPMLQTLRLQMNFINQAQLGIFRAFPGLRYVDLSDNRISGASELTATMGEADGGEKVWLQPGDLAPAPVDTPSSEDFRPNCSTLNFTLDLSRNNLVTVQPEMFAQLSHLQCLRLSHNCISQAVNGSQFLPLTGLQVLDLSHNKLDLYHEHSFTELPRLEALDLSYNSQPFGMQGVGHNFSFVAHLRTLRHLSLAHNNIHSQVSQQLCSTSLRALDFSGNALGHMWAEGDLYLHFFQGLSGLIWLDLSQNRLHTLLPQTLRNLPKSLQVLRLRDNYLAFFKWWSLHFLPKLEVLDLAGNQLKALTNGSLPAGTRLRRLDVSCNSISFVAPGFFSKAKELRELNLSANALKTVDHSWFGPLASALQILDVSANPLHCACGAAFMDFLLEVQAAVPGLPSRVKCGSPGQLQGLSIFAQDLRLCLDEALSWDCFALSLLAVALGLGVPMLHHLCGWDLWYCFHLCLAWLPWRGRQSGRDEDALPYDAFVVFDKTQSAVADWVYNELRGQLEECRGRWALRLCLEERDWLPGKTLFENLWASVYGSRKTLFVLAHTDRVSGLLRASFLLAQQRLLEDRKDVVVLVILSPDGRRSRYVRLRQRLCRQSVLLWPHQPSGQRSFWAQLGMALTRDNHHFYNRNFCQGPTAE
Assay: HEK-TLR9 NF-κB-luciferase reporter, ODN2006 stimulation
Type: cell-based
Conditions: averaged NF-κB-Luciferase relative to ODN2006 condition; for TLR9 100 nM: MOE-modified ASO at 100 nM; for TLR9 500 nM: MOE-modified ASO at 500 nM

| Sequence | TLR9 100 nM | TLR9 500 nM |
| --- | --- | --- |
| AACACTTCGTGGGGTCCTTT (antisense; 2'-MOE modified, pattern not given here) [HPRT-664 MOE] | 0.426 | 0.402 |
| AATCCGCCCAAAGGGAACTG (antisense; 2'-MOE modified, pattern not given here) [HPRT-1027 MOE] | 0.591 | 0.591 |
| ACAACCCCTTTCACCATCCC (antisense; 2'-MOE modified, pattern not given here) [MB21D1-689 MOE] | 0.785 | 0.499 |
| ACAGTGTTGAGATACTCGGG (antisense; 2'-MOE modified, pattern not given here) [EGFR-3652 MOE] | 0.436 | 0.194 |
| ACCCACTTGGCAGACCATCA (antisense; 2'-MOE modified, pattern not given here) [CTNN2B-1575 MOE] | 0.725 | 0.556 |
| ACTGACTGTCTTGAGGGTTC (antisense; 2'-MOE modified, pattern not given here) [MB21D1-1483 MOE] | 0.424 | 0.291 |
| AGATCTGGCAGCCCATCAAC (antisense; 2'-MOE modified, pattern not given here) [CTNN2B-2516 MOE] | 0.607 | 0.268 |
| AGGTCTTGGCTTCGTGGAGC (antisense; 2'-MOE modified, pattern not given here) [MB21D1-522 MOE] | 0.568 | 0.280 |
| ATCCAACACTTCGTGGGGTC (antisense; 2'-MOE modified, pattern not given here) [HPRT-668 MOE] | 0.287 | 0.618 |
| ATGTCCCCTGTTGACTGGTC (antisense; 2'-MOE modified, pattern not given here) [HPRT-489 MOE] | 0.968 | 0.953 |
| ATGTCCCGCCACTGGATGCT (antisense; 2'-MOE modified, pattern not given here) [EGFR-727 MOE] | 0.801 | 0.423 |
| ATGTGATGGCCTCCCATCTC (antisense; 2'-MOE modified, pattern not given here) [HPRT-333 MOE] | 0.900 | 0.918 |
| CAACACTTCGTGGGGTCCTT (antisense; 2'-MOE modified, pattern not given here) [HPRT-665 MOE] | 0.858 | 0.619 |
| CAAGGCCCTTCGCACTTCTT (antisense; 2'-MOE modified, pattern not given here) [EGFR-1225 MOE] | 0.624 | 0.712 |
| CAATGTGATGGCCTCCCATC (antisense; 2'-MOE modified, pattern not given here) [HPRT-335 MOE] | 0.614 | 0.412 |
| CACCCACTTGGCAGACCATC (antisense; 2'-MOE modified, pattern not given here) [CTNN2B-1576 MOE] | 0.665 | 0.677 |
| CAGATAGCACCTTCAGCACT (antisense; 2'-MOE modified, pattern not given here) [CTNN2B-1294 MOE] | 0.583 | 0.484 |
| CCAACACTTCGTGGGGTCCT (antisense; 2'-MOE modified, pattern not given here) [HPRT-666 MOE] | 0.612 | 0.600 |
| CGTGTCTGGAAGCTTCCTTT (antisense; 2'-MOE modified, pattern not given here) [CTNN2B-808 MOE] | 0.568 | 0.259 |

| Sequence | TLR9 100 nM | TLR9 500 nM |
| --- | --- | --- |
| CTCTTGAAGCATCGTATCAC (antisense; 2'-MOE modified, pattern not given here) [CTNN2B-3648 MOE] | 0.721 | 0.472 |
| CTGTGATCTTGACATGCTGC (antisense; 2'-MOE modified, pattern not given here) [EGFR-2790 MOE] | 0.506 | 0.298 |
| CTTACTTTCCGAGGTGTCCA (antisense; 2'-MOE modified, pattern not given here) [CAMSAP1-1739 MOE] | 0.647 | 0.531 |
| GAACCACGTCTGCTCTAACA (antisense; 2'-MOE modified, pattern not given here) [CAMSAP1-1635 MOE] | 0.588 | 0.466 |
| GAGGTCTTGGCTTCGTGGAG (antisense; 2'-MOE modified, pattern not given here) [MB21D1-523 MOE] | 0.888 | 0.650 |
| GAGTCTCTGGAGCTTCCTCT (antisense; 2'-MOE modified, pattern not given here) [CAMSAP1-2456 MOE] | 0.594 | 0.127 |
| GATGCTCCTCGGTCTCCCTT (antisense; 2'-MOE modified, pattern not given here) [CAMSAP1-1850 MOE] | 0.792 | 0.196 |
| GATGGCCTCCCATCTCCTTC (antisense; 2'-MOE modified, pattern not given here) [HPRT-329 MOE] | 0.662 | 1.268 |
| GCCGCTTTTCTGTCTGGTTC (antisense; 2'-MOE modified, pattern not given here) [CTNN2B-311 MOE] | 0.684 | 1.018 |
| GCGACTATACGCGCAATATG (antisense; 2'-MOE modified, pattern not given here) [NC5 2′MOE] | 0.395 | 0.035 |
| GCGGAGGTCTTGGCTTCGTG (antisense; 2'-MOE modified, pattern not given here) [MB21D1-526 MOE] | 0.682 | 0.246 |
| GCGTATTATAGCCGATTAAC (antisense; 2'-MOE modified, pattern not given here) [NC1 2′MOE] | 0.460 | 0.064 |
| GCGTGTCTGGAAGCTTCCTT (antisense; 2'-MOE modified, pattern not given here) [CTNN2B-809 MOE] | 0.263 | 0.229 |
| GCTTCAGGCGCTGCCTTGCC (antisense; 2'-MOE modified, pattern not given here) [CAMSAP1-2709 MOE] | 0.833 | 0.824 |
| GGAGATTTCAGAGCAGCTTC (antisense; 2'-MOE modified, pattern not given here) [EGFR-4885 MOE] | 0.541 | 0.381 |
| GGAGCTTCGAGGCCCCAGGC (MOE modified, pattern not given here) [MB21D1-616 MOE] | 0.588 | 0.168 |
| GGAGGTCTTGGCTTCGTGGA (antisense; 2'-MOE modified, pattern not given here) [MB21D1-524 MOE] | 0.466 | 0.342 |
| GGCATCCACCACGTCGTCCA (antisense; 2'-MOE modified, pattern not given here) [EGFR-3266 MOE] | 0.742 | 0.481 |
| GGGAAAGGTTATGCAAGGTC (antisense; 2'-MOE modified, pattern not given here) [CTNN2B-916 MOE] | 0.521 | 0.505 |
